# Earlier results in Sander's compilation of Henry's law constants (doi:10.1021/je049850a).
# Test: Henry solubility constant Hcp at 298.15 K (mol/(m3 Pa))
# Settings: reference: Plyasunov et al. (2004); cited value
row,Henry solubility constant Hcp,SMILES
1,0.024,CC(=O)OCC(C)C [2-methylpropyl ethanoate]
2,0.0095,"COC(=O)C(C)(C)C [methyl 2,2-dimethylpropanoate]"
3,0.042,CCCC(=O)OC [methyl butanoate]
4,0.02,CC(=O)OCCC(C)C [3-methylbutyl ethanoate]
5,0.045,CCCOC(C)=O [propyl ethanoate]
6,0.027,CCCCCOC(C)=O [pentyl ethanoate]
7,0.011,"CC(=O)OC(C)(C)C [1,1-dimethylethyl ethanoate]"
8,0.041,CCOC(=O)CC [ethyl propanoate]
9,0.03,CCCCC(=O)OC [methyl pentanoate]
10,0.026,COC(=O)C(C)C [methyl 2-methylpropanoate]
11,0.018,CCCCCCC(=O)OC [methyl heptanoate]
12,0.063,CCOC(C)=O [ethyl ethanoate]
13,0.055,CCC(=O)OC [methyl propanoate]
14,0.033,CC(=O)OC(C)C [2-propyl ethanoate]
15,0.017,CCCCCCOC(C)=O [hexyl ethanoate]
16,0.012,CCCCCCCC(=O)OC [methyl octanoate]
17,0.081,COC(C)=O [methyl ethanoate]
18,0.023,CCC(C)OC(C)=O (stereo not drawn) [2-butyl ethanoate]
19,0.026,CCCCCC(=O)OC [methyl hexanoate]

# The remaining lines, values behind:
row,SMILES,Henry solubility constant Hcp
1,CCCOC(=O)CCC [propyl butanoate],0.022
2,CC(C)CCOC=O [3-methylbutyl methanoate],0.012
3,CCCCCOC(=O)CC [pentyl propanoate],0.019
4,CCCCOC(=O)CCC [butyl butanoate],0.016
5,CCOC=O [ethyl methanoate],0.035
6,CCCCOC(=O)CCCC [butyl pentanoate],0.0098
7,CC(C)COC(=O)C(C)C [2-methylpropyl 2-methylpropanoate],0.0078
8,CCOC(=O)C(C)C [ethyl 2-methylpropanoate],0.017
9,CCCCCCCCCC(=O)OCC [ethyl decanoate],0.012
10,CCCOC(=O)CC [propyl propanoate],0.029
11,CCOC(=O)CC(C)C [ethyl 3-methylbutanoate],0.014
12,CCCCCOC=O [pentyl methanoate],0.016
13,CCCOC=O [propyl methanoate],0.028
14,CCCCOC=O [butyl methanoate],0.019
15,CCOC(=O)C(C)CC (stereo not drawn) [ethyl 2-methylbutanoate],0.014
16,CCCCCCOC=O [hexyl methanoate],0.01
17,"CCOC(=O)C(C)(C)C [ethyl 2,2-dimethylpropanoate]",0.0057
18,CCCCOC(C)=O [butyl ethanoate],0.035
19,CCCC(=O)OCC [ethyl butanoate],0.029
20,CCCCCC(=O)OCC [ethyl hexanoate],0.019
21,CCC(=O)OC(C)C [isopropyl propanoate],0.018
22,CCCCOC(=O)CC [butyl propanoate],0.02
23,CCCC(=O)OC(C)C [2-propyl butanoate],0.018
24,CCCCCCCC(=O)OCC [ethyl octanoate],0.017
25,CCCCCCCCC(=O)OC [methyl nonanoate],0.0082
26,CCC(=O)OCC(C)C [(2-methylpropyl)-propanoate],0.015
27,CC(C)OC=O [isopropyl methanoate],0.019
28,CC(C)COC=O [(2-methylpropyl)-methanoate],0.016
29,CCCCC(=O)OCC [ethyl pentanoate],0.023
